This note sets out measurements from patent US12290544B1, “Essential oil of stems and leaves of Chuzhou chrysanthemum and application thereof” (Chuzhou University, priority 2023, dated 2025).

Counter-ions that a name gives are not always drawn.

In one experiment the test system is Escherichia coli. Description: Bacterial inhibition assay (filter paper, bacteriostatic ring). The format is cell-based. As to the method:
(§1) Cultured Escherichia coli and Staphylococcus aureus are diluted into […] colony forming units per milliliter (CFU/mL) bacterial solution respectively, and evenly spread on a potato dextrose agar (PDA) plate. After standing for 10 min, the filter paper with a diameter of 6 mm made by a punch is spread on the PDA plate, and 6 pieces are evenly placed in each plate. 10 μL of essential oil of stems and leaves of Chuzhou chrysanthemum with a concentration of 5 mg/mL is added with a pipette, and the culture dish is placed in a 37° C. incubator for culture. In the same way, the bacterial inhibition assay of the essential oil of the stems and leaves of Chuzhou chrysanthemum is carried out at the concentrations of 10, 20, 50, and 100 mg/mL. After 16 to 18 h of incubation, a diameter of a bacteriostatic ring (including the piece) is measured with a vernier caliper and recorded. When measuring the bacteriostatic ring, the bacteriostatic ring with uniform and completely sterile growth should be selected, and its diameter should be measured with an outer edge of the bacteriostatic ring as the boundary. Six parallel experiments are performed for each concentration, and the mean and standard deviation are calculated. Ethyl acetate is used as blank control, and streptomycin sulfate and ampicillin are used as positive controls.

A further experiment relates to Staphylococcus aureus. Described as above. The experiment is classed as cell-based. As to the method: as §1
Where [1] appears, read: positive control 50 ppm, read-out: Inhibitory rate.
The mark [2] stands for this setting: positive control 500 ppm, read-out: Inhibitory rate.

Take `CC1(C)S[C@@H]2[C@H](NC(=O)[C@H](N)c3ccccc3)C(=O)N2[C@H]1C(=O)O` [Ampicillin]: the Bacteriostatic ring diameter was 17.12 ± 0.63B mm in the experiment on Escherichia coli (positive control 50 ppm) and 16.58 ± 1.17C mm in the experiment on Staphylococcus aureus (positive control 50 ppm). The inhibition at 50 ppm with Escherichia coli (setting [1]) amounted to 54.8 ± 1.66%; in the experiment on Staphylococcus aureus (setting [1]), 53.2 ± 3.03%.

For the compound `[H]/N=C(/N)N[C@H]1[C@H](O)[C@@H](O)[C@H](O[C@@H]2O[C@@H](C)[C@](O)(C=O)[C@H]2O[C@@H]2O[C@@H](CO)[C@H](O)[C@@H](O)[C@@H]2NC)[C@@H](N/C(N)=N\[H])[C@@H]1O` [Streptomycin sulfate], the Bacteriostatic ring diameter is recorded as 15.98 ± 0.43C mm with Escherichia coli (positive control 500 ppm) and 18.10 ± 0.48B mm in the experiment on Staphylococcus aureus (positive control 500 ppm). The inhibition at 500 ppm in the experiment with Escherichia coli (setting [2]) is 51.6 ± 1.3%; in the experiment on Staphylococcus aureus (setting [2]), 57.3 ± 1.13%.
